Here are results for one compound from patent US7285536B2, “Anti-cancer therapeutic compounds” (Yeda Research and Development Co., Ltd., priority 2001, dated 2007).

In the experiment the test system is 3LL lewis lung carcinoma, variant D122. Kind of experiment: 3LL Lewis lung carcinoma (D122) experimental lung metastasis in mice: survival and lung weight. Format: in vivo, C57BL/6 mice. The procedure:
C57BL/6, 12 months old male mice were obtained from the Jackson Laboratory.
Syngeneic, 3LL lewis lung carcinoma, variant D122, was obtained from the Weizmann Institute of Science. This tumor line develops metastases in the lungs after intravenous (iv) inoculation.
Cells were cultured in DMEM medium containing high glucose and supplemented with 10% FCS, glutamine and penicillin.
Cells were incubated 24 hr before inoculation into the mice with the different disaccharides (300 ng/ml) in culture medium. Then, the cells were washed and injected i. v., (500,000 cells per mouse) in 100 μl PBS containing 30 ng of the corresponding disaccharide.
The number of dead mice was counted each day after the inoculation was performed. The mice were sacrificed at day 50 and the weights of their lung were determined.
Each group, injected by one of the disaccharides, contained 16 mice. Control mice received PBS alone. The different disaccharides, were injected to the mice subcutaneously (30 ng per mouse in 0.1 ml of PBS), one day before and one and two days after cell inoculation.

Where [1] appears, read: day 49 after 3LL injection, 16 mice per group, DS 30 ng per mouse s.c. one day before and one and two days after inoculation.

With `CC1(C)OC(COS(=O)(=O)O)[C@@](C)(COC[C@@]2(C)OC(C(=O)O)=CC(O)C2OS(=O)(=O)O)C(O)C1N` (stereo partly drawn) [DS 8892, α-ΔUA-2S-[1→4]-GlcN-6S], the responders at 30 ng (Mus musculus, Lewis lung carcinoma, sc, 1176 h, day 49 after 3LL injection, [live mice/total mice] × 100, PBS control 6.2) was determined as 25%. In addition, the inhibition in vivo at 30 ng (Mus musculus, Lewis lung carcinoma, sc, 1200 h, day 50 after 3LL injection, [1-(weights of treated group/weights of control group)] × 100, read-out: Decrease (%) of lung weight) amounted to 28.8%. Under setting [1], this compound showed a dead mice of 12 and a live mice of 4. Further, the “Weights of lungs ± SD” value (day 50 after 3LL injection, PBS 0.92) is recorded as 0.66 ± 0.18 gr. Also, the “anti-tumor treatment / inhibition of tumor development (in words)” value (mice inoculated i.v. with 3LL cells, treated with DS) is “did not inhibit the tumor development at all”.
